Results as given in patent publication US11090319B2, “Therapeutic uses of pharmaceutical compositions comprising cyclic boronic acid ester derivatives” (Melinta Subsidiary Corp., priority 2010, dated 2021).
Where two headings read alike, the source gives them in different places.

What was measured:
[1] = test system: ECL1004 Enterobacter cloacae NMC-A; assay: Checkerboard assay, biapenem potentiation; conditions: Biapenem MIC 8-fold; ECL1004 NMC-A class A
[2] = test system: EC1007 Escherichia coli KPC-3; assay: Checkerboard assay, biapenem potentiation; conditions: Biapenem MIC 8-fold; EC1007 KPC-3 class A
[3] = test system: SM1000 Serratia marcescens SME-2; assay: Checkerboard assay, biapenem potentiation; conditions: Biapenem MIC 8-fold; SM1000 SME-2 class A
[4] = molecular target: various β-lactamases (bacterial lysates) (Escherichia coli, UniProt A0A5R8T042); assay: biochemical; format: biochemical; conditions: read-out: AZT IC50 KP1009 CTX-M-15
[5] = molecular target: various β-lactamases (bacterial lysates) (Escherichia coli, UniProt A0A649V088); assay: biochemical; format: biochemical; conditions: read-out: AZT IC50 KP1005 CTX-M-14
[6] = molecular target: various β-lactamases (bacterial lysates) (Klebsiella pneumoniae, UniProt Q9F663); assay: biochemical; format: biochemical
[7] = molecular target: various β-lactamases (bacterial lysates) (Klebsiella pneumoniae, UniProt Q9F663, H272Y); assay: biochemical; format: biochemical
[8] = molecular target: various β-lactamases (bacterial lysates) (Pseudomonas aeruginosa, UniProt P14489); assay: biochemical; format: biochemical; conditions: AZT IC50 KP1007 OXA-10
[9] = molecular target: various β-lactamases (bacterial lysates) (Salmonella typhimurium, UniProt P0A1V8); assay: biochemical; format: biochemical; conditions: AZT IC50 KPX1001 OXA-2
[10] = molecular target: various β-lactamases (bacterial lysates) (Escherichia coli, UniProt Q53TY8); assay: Inhibition of nitrocefin cleavage by bacterial lysates, Table 11; format: biochemical; conditions: lysate EC1010 pAmpC (CMY-6), read-out: NCF IC50 EC1010 pAmpC (CMY-6)
[11] = test system: strains expressing class A ESBLs; format: cell-based
Procedure: Selected β-lactamase inhibitors were also tested for their ability to potentiate the monobactam tigemonam.

SME-2, lysate of SM1000 = SME-2, lysate of SM1000 (Serratia marcescens, UniProt P52682); assay: Inhibition of biapenem hydrolysis by bacterial lysate; conditions: read-out: IC50 of inhibition of biapenem hydrolysis; SM1000 SME-2
[12] = molecular target: CTX-M-15, lysate of KP1009 (Escherichia coli, UniProt Q9EXV5); assay: Inhibition of ceftazidime hydrolysis by bacterial lysate
GES-1, lysate of pa 1063 = GES-1, lysate of pa 1063 (Klebsiella pneumoniae, UniProt Q9KJY7); assay: as above
SHV-2, lysate of ec306 = SHV-2, lysate of ec306 (Escherichia coli, UniProt P0A9Z7); assay: as above
SHV-5, lysate of ec308 = SHV-5, lysate of ec308 (Escherichia coli, UniProt P0AD63, E235K/G234S); assay: as above
OXA-10, lysate of KP1007 = OXA-10, lysate of KP1007 (Pseudomonas aeruginosa, UniProt P14489); assay: as above
[13] = lysate KP1004 KPC-2, aztreonam cleavage, read-out: AZT IC50 KP1004 KPC-2 (converted)
[14] = lysate KP1008 KPC-2, aztreonam cleavage, read-out: AZT IC50 KP1008 KPC-2

Sequence of various β-lactamases (bacterial lysates) (Escherichia coli, UniProt A0A5R8T042) (A0A5R8T042 29-291): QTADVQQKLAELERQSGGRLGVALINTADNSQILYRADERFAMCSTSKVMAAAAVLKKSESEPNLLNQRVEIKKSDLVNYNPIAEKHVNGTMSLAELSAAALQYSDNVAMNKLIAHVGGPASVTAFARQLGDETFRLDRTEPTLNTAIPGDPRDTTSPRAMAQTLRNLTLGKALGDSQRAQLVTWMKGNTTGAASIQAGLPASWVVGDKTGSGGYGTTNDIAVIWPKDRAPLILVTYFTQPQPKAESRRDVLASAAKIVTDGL
Sequence of CTX-M-15, lysate of KP1009 (Q9EXV5 entry or part of it): as the sequence (A0A5R8T042 29-291) above

Structure (SMILES) | IC50 [4] [nM] | IC50 [5] [nM] | IC50 [6, 13] [nM] | IC50 [6, 14] [nM] | IC50 [7] [nM] | IC50 [8] [nM] | IC50 [9] [nM] | IC50 [10] [nM] | further results
O=C(O)CC1CC[C@H](NC(=O)Cc2ccccc2)B(O)O1 (stereo partly drawn) [Compound 2, 2-((3R)-2-hydroxy-3-(2-phenylacetamido)-1,2-oxaborinan-6-yl)acetic acid] | – | – | – | – | – | – | – | – | MPC8 [1]: Y (MPC8 of 0.16 μg/mL to 1 μg/mL); MPC8 [2]: X (MPC8 of less than 0.16 μg/mL); MPC8 [3]: Y (MPC8 of 0.16 μg/mL to 1 μg/mL)
NC1(CC(=O)N[C@H]2CC[C@@H](CC(=O)O)OB2O)CCCCC1 [Compound 51, 2-((3R,6S)-3-(2-(1-aminocyclohexyl)acetamido)-2-hydroxy-1,2-oxaborinan-6-yl)acetic acid] | > 6410 | > 6410 | < 1600 | < 1600 | < 1600 | > 6410 | 1600 to 6410 | 1600 to 6410 | –
O=C(O)C[C@@H]1CC[C@H](NC(=O)Cn2ccnc2-c2ccccc2)B(O)O1 [Compound 54, 2-((3R,6S)-2-hydroxy-3-(2-(2-phenyl-1H-imidazol-1-yl)acetamido)-1,2-oxaborinan-6-yl)acetic acid] | > 5600 | < 1400 | < 1400 | < 1400 | < 1400 | > 5600 | 1400 to 5600 | 1400 to 5600 | –
Nc1nc(/C(=N/OCc2cc(=O)c(O)cn2O)C(=O)N[C@H]2CC[C@@H](CC(=O)O)OB2O)cs1 [Compound 62, 2-((3R)-3-((Z)-2-(2-aminothiazol-4-yl)-2-((1,5-dihydroxy-4-oxo-1,4-dihydropyridin-2-yl)methoxyimino)acetamido)-2-hydroxy-1,2-oxaborinan-6-yl)acetic acid] | 1040 to 4160 | 1040 to 4160 | 1040 to 4160 | < 1040 | < 1040 | > 4160 | > 4160 | > 4160 | –
C[C@]1(Cn2ccnn2)[C@H](C(=O)O)N2C(=O)C[C@H]2S1(=O)=O [Tazobactam, reference compound] | – | – | – | – | 2460 | 14800 | – | – | IC50 ([6]; AZT IC50 KP1008 KPC-2): 7390 nM; IC50 ([6]; lysate KP1004 KPC-2, aztreonam cleavage, numeric values, read-out: AZT IC50 KP1004 KPC-2 (converted)): 2460 nM; MPC4 CTX-M-14 KP1005 [11]: 10 µg/mL; MPC4 CTX-M-15 KP1009 [11]: 10 µg/mL; MPC4 SHV-5 ec308 [11]: 5 µg/mL; MPC4 SHV-12 KP1010 [11]: 1.25 µg/mL; MPC4 SHV-18 KP1012 [11]: 1.25 µg/mL; MPC4 TEM-10 EC1009 [11]: 2.5 µg/mL; MPC4 TEM-10 ec302 [11]: 5 µg/mL; MPC4 TEM-26 ec304 [11]: 1.25 µg/mL; IC50 (SME-2, lysate of SM1000): 333 to 3330 nM; IC50 [12]: < 333 nM; IC50 (GES-1, lysate of pa 1063): 333 to 3330 nM; IC50 (SHV-2, lysate of ec306): 333 to 3330 nM; IC50 (SHV-5, lysate of ec308): < 333 nM; IC50 (OXA-10, lysate of KP1007): 333 to 3330 nM
